Where two headings read alike, the source gives them in different places. Each block holds one compound with its values, some of them ahead of it.
Legend:
Format in all cases: cell-based
[1] = system: WiDr cells (colon cancer cells; wildtype SF3B1); experiment: Cell viability assay (CellTiter-Glo, 72 hr), WiDr cells; details: Homo sapiens
Description: (§1) Cells (WiDr and Panc05.04 obtained from ATCC) were seeded in 96-well plates, with 2000 cells/100 μL/well, and incubated overnight. Spent media was removed, and fresh media containing 9 different concentrations of compound (100 μL/well) were added, with DMSO concentration from compound stock solution adjusted to be 0.1%. Each compound treatment was done in duplicate or triplicate at each concentration.
(§2) Another plate with cells seeded was dedicated as a time zero (Tz) plate, to which was added 0.1% DMSO in media (100 μL/well) followed by CellTiter-Glo® reagent (Promega Corporation, Madison, Wisconsin) (50 μL/well) for ATP measurement as a surrogate of cell viability. Average value from measurement of multiple wells of this plate is used as Tz. Compound-treated plates were incubated for 72 hr at 37° C. Then, CellTiter-Glo® reagent (50 μL/well) was added and ATP was measured. Average value from measurement of the duplicate or triplicate compound-treated wells is used as Ti, and seeded plates with medium having 0.1% DMSO without compound is used as control growth (C).
(§3) Percentage growth inhibition/Percentage viability was calculated as:
(§4) [(Ti−Tz)/(C−Tz)]×100 for concentrations for which Ti>/=Tz
(§5) [(Ti−Tz)/Tz]×100 for concentrations for which Ti<Tz.
(§6) *time zero (Tz), control growth (C), and test growth in the presence of compound (Ti) Percentage growth inhibition/Percentage viability are plotted versus compound concentration to determine Emax.
Emax refers to the maximum achievable response to a compound in a tested dose range, with a negative value indicating cellular lethality. A larger negative Emax value indicates greater cellular lethality for a particular compound. […]

[2] = system: WiDr-R cells (colon cancer cells; chemically-induced SF3B1 R1074H mutant); experiment: Cell viability assay (CellTiter-Glo, 72 hr), resistant WiDr-R cells (counter-screen)
Description: as §1, §2, §3, §4, §5, §6
(§7) Emax refers to the maximum achievable response to a compound in a tested dose range, with a negative value indicating cellular lethality. A larger negative Emax value indicates greater cellular lethality for a particular compound.
The counter-screening of compounds in this viability assay with a “resistant” WiDr-R cell line may indicate whether these compounds have off-target effect(s).

[3] = system: Panc 05.04 cells (pancreatic cancer cells; Q699H and K700E mutations in SF3B1); experiment: Cell viability assay (CellTiter-Glo, 72 hr), Panc 05.04 cells; details: Panc 05.04 cells (mutant SF3B1); for Emax: maximum achievable response in tested dose range, negative value = cellular lethality, read-out: Panc 05.04 (mt SF3B1 cells) Emax (%); for GI50: read-out: Panc 05.04 (mt SF3B1 cells), GI50
Description: as §1, §2, §3, §4, §5, §6, §7

[4] = WiDr cells (wildtype SF3B1), read-out: WiDr GI50
[5] = WiDr-R cells (SF3B1 R1074H mutation, resistant), read-out: WiDr-R GI50

GI50 [1, 4]: 74.6 nM
GI50 [3]: 170 nM
SMILES: C/C(=C\C=C\[C@@H](C)COC(=O)N1CCCC1)[C@H]1OC(=O)CCCCC[C@@H](OC(=O)N2CCN(C3CCCCCC3)CC2)/C=C/[C@@H]1C
GI50 [2, 5]: 929 nM
Emax [3]: -93.3%

SMILES: C/C(=C\C=C\[C@@H](C)c1ccccn1)[C@H]1OC(=O)C[C@H](O)CC[C@@](C)(O)[C@@H](OC(=O)N(C)C2CCN(C)CC2)/C=C/[C@@H]1C
GI50 [1, 4]: 16.2 nM
GI50 [2, 5]: > 1000 nM
Emax [3]: -60.2%
GI50 [3]: 25.1 nM

SMILES: CCCN(C)C(=O)OC[C@H](C)/C=C/C=C(\C)[C@H]1OC(=O)C[C@H](O)CC[C@@](C)(O)[C@@H](OC(=O)N2CCN(C3CCCCCC3)CC2)/C=C/[C@@H]1C
GI50 ([1]; WiDr, read-out: WiDr GI50 (nM)): 43.4 nM
GI50 ([2]; read-out: WiDr-R GI50 (nM)): > 1000 nM
Emax [3]: -92.4%
GI50 [3]: 279 nM

SMILES: C/C(=C\C=C\[C@@H](C)COC(=O)N1CC[C@@H](O)C1)[C@H]1OC(=O)C[C@H](O)CC[C@@](C)(O)[C@@H](OC(=O)N2CCN(C)CC2)/C=C/[C@@H]1C
GI50 [1, 4]: 89.9 nM
GI50 [2, 5]: > 1000 nM
Emax [3]: -94.8%
GI50 [3]: 88.1 nM

SMILES: C/C(=C\C=C\[C@@H](C)COC(=O)N1CCC[C@H]1C)[C@H]1OC(=O)C[C@H](O)CC[C@@](C)(O)[C@@H](OC(=O)N2CCN(C3CCCCCC3)CC2)/C=C/[C@@H]1C
GI50 [1, 4]: 1.42 nM
GI50 [2, 5]: 21.8 nM
GI50 [3]: 2.52 nM

SMILES: CC(=O)O[C@H]1/C=C/[C@H](C)[C@@H](/C(C)=C/C=C/C(C)CCc2ccccn2)OC(=O)C[C@H](O)CC[C@@]1(C)O (stereo partly shown)
GI50 [1, 4]: 593 nM
GI50 [2, 5]: > 10000 nM
Emax [3]: 0.954%
GI50 [3]: 972 nM

SMILES: COc1cccc(C(C)/C=C/C=C(\C)[C@H]2OC(=O)C[C@H](O)CC[C@@](C)(O)[C@@H](OC(C)=O)/C=C/[C@@H]2C)n1 (stereo partly shown)
GI50 [1, 4]: 282 nM
GI50 [2, 5]: > 10000 nM
Emax [3]: -12.7%
GI50 [3]: 554 nM

SMILES: C/C(=C\C=C\[C@@H](C)COC(=O)N1Cc2ccccc2C1)[C@H]1OC(=O)C[C@H](O)CC[C@@](C)(O)[C@@H](OC(=O)N2CCN(C)CC2)/C=C/[C@@H]1C
GI50 [1, 4]: 33.8 nM
GI50 [2, 5]: > 1000 nM
Emax [3]: -56%
GI50 [3]: 35.4 nM

SMILES: COCCN(C)C(=O)OC[C@H](C)/C=C/C=C(\C)[C@H]1OC(=O)C[C@H](O)CC[C@@](C)(O)[C@@H](OC(C)=O)/C=C/[C@@H]1C
GI50 [1, 4]: 247 nM
GI50 [2, 5]: > 1000 nM
Emax [3]: -96.8%
GI50 [3]: 64.3 nM

SMILES: CC(=O)O[C@H]1/C=C/[C@H](C)[C@@H](/C(C)=C/C=C/[C@@H](C)COC(=O)N2CCOCC2)OC(=O)C[C@H](O)CC[C@@]1(C)O
GI50 [1, 4]: 91.3 nM
GI50 [2, 5]: > 10000 nM
GI50 [3]: 15.4 nM

SMILES: CC(=O)O[C@H]1/C=C/[C@H](C)[C@@H](/C(C)=C/C=C/C(C)Cc2ccccn2)OC(=O)C[C@H](O)CC[C@@]1(C)O (stereo partly shown)
GI50 [1, 4]: 911 nM
GI50 [2, 5]: > 10000 nM
Emax [3]: 20.3%
GI50 [3]: 1670 nM

GI50 [1, 4]: 11.2 nM
GI50 [3]: 4.44 nM
SMILES: C/C(=C\C=C\[C@@H](C)COC(=O)N1CC[C@@H](O)C1)[C@H]1OC(=O)CCCC[C@@](C)(O)[C@@H](OC(=O)N2CCN(C)CC2)/C=C/[C@@H]1C
GI50 [2, 5]: > 1000 nM
Emax [3]: -94.6%

SMILES: C/C(=C\C=C\[C@@H](C)CNC(=O)C1CCCC1)[C@H]1OC(=O)C[C@H](O)CC[C@@](C)(O)[C@@H](OC(=O)N2CCN(C)CC2)/C=C/[C@@H]1C
GI50 [1, 4]: 263 nM
GI50 [2, 5]: > 1000 nM
Emax [3]: -57%
GI50 [3]: 137 nM

SMILES: C/C(=C\C=C\[C@@H](C)COC(=O)N1CCC[C@H]1CF)[C@H]1OC(=O)C[C@H](O)CC[C@H](C)[C@@H](OC(=O)N2CCN(C3CCCCCC3)CC2)/C=C/[C@@H]1C
GI50 [1, 4]: 5.05 nM
GI50 [2, 5]: > 1000 nM
Emax [3]: -77.7%
GI50 [3]: 6.76 nM

GI50 [1, 4]: > 10000 nM
GI50 [3]: > 10000 nM
SMILES: CC(=O)O[C@H]1/C=C/[C@H](C)[C@@H](/C(C)=C/C=C/[C@@H](C)c2ccccn2)OC(=O)CCCCC1
GI50 [2, 5]: > 10000 nM

SMILES: C/C(=C\C=C\[C@@H](C)CN(C)C(=O)N1CCCC1)[C@H]1OC(=O)C[C@H](O)CC[C@@](C)(O)[C@@H](OC(=O)N2CCN(C3CCCCCC3)CC2)/C=C/[C@@H]1C
GI50 [1, 4]: 145 nM
GI50 [2, 5]: > 1000 nM
Emax [3]: -94.5%
GI50 [3]: 23.5 nM

— patent US11926619B2, “Certain pladienolide compounds and methods of use” (EISAI R&D MANAGEMENT CO., LTD., priority 2018, dated 2024)
